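Protocol summary: plate cells (96-well), add compound at 5 concentrations, incubate 48 h, interpolate endpoints linearly. At the GI50, growth is halved.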 Active and inactive are the calls of the source. No stated cut-off is given here; in the data, active = GI50 up to about 1.1 µM and inactive = higher.
What was measured:
Test in all cases: NCI anticancer screen, dose series, 48 h
COLO 205 = tested on: COLO 205
MOLT-4 = tested on: MOLT-4
SK-MEL-5 = tested on: SK-MEL-5
MDA-MB-231 = tested on: MDA-MB-231
NCI-H460 = tested on: NCI-H460
SN12C = tested on: SN12C
HCC 2998 = tested on: HCC 2998
UACC-62 = tested on: UACC-62
HCT-116 = tested on: HCT-116
M14 = tested on: M14
UO-31 = tested on: UO-31
T47D = tested on: T47D
MDA-MB-435 = tested on: MDA-MB-435
ACHN = tested on: ACHN
RPMI-8226 = tested on: RPMI-8226
OVCAR-8 = tested on: OVCAR-8
SW-620 = tested on: SW-620
SK-MEL-2 = tested on: SK-MEL-2
HOP-62 = tested on: HOP-62
IGROV-1 = tested on: IGROV-1

Row | Structure (SMILES) | GI50 (COLO 205) | GI50 (MOLT-4) | GI50 (SK-MEL-5) | GI50 (MDA-MB-231) | GI50 (NCI-H460) | GI50 (SN12C) | GI50 (HCC 2998) | GI50 (UACC-62) | GI50 (HCT-116) | GI50 (M14) | GI50 (UO-31) | GI50 (T47D) | GI50 (MDA-MB-435) | GI50 (ACHN) | GI50 (RPMI-8226) | GI50 (OVCAR-8) | GI50 (SW-620) | GI50 (SK-MEL-2) | GI50 (HOP-62) | GI50 (IGROV-1)
1 | OC1(c2ccccc2)CCN(Cc2c[nH]c3ccccc23)CC1 | 17.5 µM (inactive) | 39.2 µM (inactive) | 36.3 µM (inactive) | 81.3 µM (inactive) | 49.1 µM (inactive) | > 100 µM (inactive) | 17.8 µM (inactive) | 47.8 µM (inactive) | 40.5 µM (inactive) | 17.5 µM (inactive) | 31 µM (inactive) | 35.6 µM (inactive) | 37.2 µM (inactive) | > 100 µM (inactive) | 39.5 µM (inactive) | > 100 µM (inactive) | > 100 µM (inactive) | 18 µM (inactive) | > 100 µM (inactive) | > 100 µM (inactive)
2 | CCN(CC)C(=S)N/N=C(/C)c1cccc(/C(C)=N\NC(=S)N(CC)CC)n1 | 1.58 µM (inactive) | 1.66 µM (inactive) | 2.13 µM (inactive) | 1.76 µM (inactive) | 1.53 µM (inactive) | 2.79 µM (inactive) | 3.9 µM (inactive) | 2.62 µM (inactive) | 2.8 µM (inactive) | 1.38 µM (inactive) | 1.95 µM (inactive) | 4.88 µM (inactive) | 3.35 µM (inactive) | 0.678 µM (active) | 2.08 µM (inactive) | 1.44 µM (inactive) | 0.951 µM (active) | 4.68 µM (inactive) | 1.41 µM (inactive) | 1.91 µM (inactive)
3 | CC(C)(C)OC(=O)c1ccc(NCC2=CC(=O)C=CC2=O)cc1 | 2.83 µM (inactive) | 1.97 µM (inactive) | 14.4 µM (inactive) | 8.34 µM (inactive) | 23.6 µM (inactive) | 11.4 µM (inactive) | 20 µM (inactive) | 13.2 µM (inactive) | 13.2 µM (inactive) | 6.38 µM (inactive) | 7.11 µM (inactive) | 1.95 µM (inactive) | 12.9 µM (inactive) | 10.1 µM (inactive) | 2.48 µM (inactive) | 13 µM (inactive) | 9.91 µM (inactive) | 16.7 µM (inactive) | 25.9 µM (inactive) | 11.6 µM (inactive)
4 | O=C(NN1CCCCC1)c1cc2cc(CCl)ccc2oc1=O | 17.9 µM (inactive) | 22.2 µM (inactive) | 17.7 µM (inactive) | 20.6 µM (inactive) | 14.9 µM (inactive) | 18.4 µM (inactive) | 13.9 µM (inactive) | 27.7 µM (inactive) | 18.2 µM (inactive) | 18.8 µM (inactive) | 18.5 µM (inactive) | 20.9 µM (inactive) | 18.5 µM (inactive) | 44.5 µM (inactive) | 24 µM (inactive) | 22.1 µM (inactive) | 23.1 µM (inactive) | 11.9 µM (inactive) | 19.4 µM (inactive) | 19.4 µM (inactive)
5 | CN1CCN(c2ccc3[nH]c(-c4ccc5[nH]c(-c6ccc(N(C)CCCl)cc6)nc5c4)nc3c2)CC1 | 0.17 µM (active) | 0.0127 µM (active) | 0.18 µM (active) | 9.64 µM (inactive) | 0.222 µM (active) | 0.0461 µM (active) | 0.461 µM (active) | 0.15 µM (active) | 0.239 µM (active) | 1.08 µM (active) | 18.7 µM (inactive) | 0.174 µM (active) | 0.144 µM (active) | 0.942 µM (active) | 1.62 µM (inactive) | 0.247 µM (active) | 0.14 µM (active) | 0.22 µM (active) | 0.156 µM (active) | 0.0382 µM (active)
6 | O=[N+]([O-])c1cc2oc(COc3ccccc3)nc2cc1Cl | 20.6 µM (inactive) | 22.2 µM (inactive) | 12.7 µM (inactive) | 30.5 µM (inactive) | 21.3 µM (inactive) | 24.7 µM (inactive) | 20 µM (inactive) | 17.1 µM (inactive) | 19 µM (inactive) | 19.5 µM (inactive) | 27.2 µM (inactive) | 18.4 µM (inactive) | 23.6 µM (inactive) | 48.3 µM (inactive) | 23.7 µM (inactive) | 35.2 µM (inactive) | 43.2 µM (inactive) | 22.1 µM (inactive) | 20.4 µM (inactive) | 19.5 µM (inactive)
7 | CNc1ccc2c(c1)Cc1ccccc1-2 | 38.7 µM (inactive) | 17 µM (inactive) | 26.8 µM (inactive) | 55.8 µM (inactive) | 32.5 µM (inactive) | 43.8 µM (inactive) | 30.6 µM (inactive) | 26.8 µM (inactive) | 56.2 µM (inactive) | 34.1 µM (inactive) | 31.1 µM (inactive) | 24.1 µM (inactive) | 28.3 µM (inactive) | 35.2 µM (inactive) | 38.8 µM (inactive) | 25.4 µM (inactive) | 53.6 µM (inactive) | 35.4 µM (inactive) | 57.4 µM (inactive) | 34.5 µM (inactive)
